Results as given in patent US11957759B1, “Rapidly accelerated fibrosarcoma (RAF) degrading compounds and associated methods of use” (Arvinas Operations, Inc., priority 2022, dated 2024).

Legend:
B-RAF G466V = target: T1, B-RAF G466V (Homo sapiens, UniProt P15056, G466V); test: Target protein degradation, assay D: T-Rex 293 cells, HA-BRAF_G466V, 384 well format; type: cell-based; details: T-Rex 293 HA-BRAF_G466V cells, 24 hours, Examples 83-269; for Dmax: T-REx-293, Assay D
T1 construct: expressed in transfected cells; host or cells: T-Rex 293 cells (Invitrogen #R71007)
Experimental: D. T-Rex 293 Cells (384 Well Format)
(§1) T-Rex 293 cells were purchased from Invitrogen (#R71007), and stably transfected with a pcDNA4/TO_HA-BRAF_G466V construct, using 400 ug Zeocin for selection. G466V cells are plated in DMEM media (Gibco #11965118) containing 10% FBS (Gibco #16000044), 1% penicillin-streptomycin (ThermoFisher #15140122), 1:250 zeocin (Invitrogen #R-25005), and 1 ng/mL doxycycline (Selleckchem #4163) at a density of 7,500 cells/well in 45 μl on PDL coated, black clear bottom 384 well plates (Corning #354663) and incubated at 37° C.+5% CO2 for 24 hours. The following day, PROTAC compounds in a 1:3 11 point dilution are diluted into DMEM media using an Agilent Bravo. 5 ul of PROTACs suspended in DMEM media are added to the cells, with a final assay concentration ranging from 300 nM to 5 pM in 0.5% DMSO. Plates are incubated at 37° C.+5% CO2 for 24 hours. At the end of treatment, media is aspirated, and cells are fixed in 50 uL 4% PFA (EMS #15710) in PBS++(PBS, 1 mM CaCl, 1 mM MgCl) at RT for 15 minutes. Cells are washed 2× with 60 uL PBS++ and permeabilized in 50 uL 1% Triton X-100 (Sigma #93443) in PBS++ for 5 minutes at RT. Cells are washed in PBS++ prior to blocking with 50 uL Licor blocking buffer (Licor #927-60001) for 1 hour at RT. HA-tagged BRAF was stained using 50 uL HA antibody (CST #3724) at 1:1000 in Licor blocking buffer for two hours at RT. Primary is aspirated before adding 50 ul of secondary antibody solution containing 1:1000 Hoechst (ThermoFisher #62249), 1:1000 HCS CellMask Deep Red Stain (ThermoFisher #H32721), and 1:5000 goat anti-rabbit IgG Alexa-Fluor 488 (ThermoFisher #A32731) in PBS++ for 1 hr at RT. Plates are washed 4× with 60 uL PBS++, then sealed with Adhesive Black Light Absorbing Film (VWR #89087-692) and imaged on the ThermoFisher CX7 PRO high content instrument. BRAF intensity is quantified in HCS Studio software (ThermoFisher), using a custom script, exported, analyzed using KNIME, and curve curation is performed in an ELN (Scilligence). Cell toxicity is measured via comparing number of nuclei in PROTAC treated wells to DMSO controls.
(§2) The concentration of an exemplary compound that leads to half maximal degradation (DC50) as well as the maximum degradation observed (Dmax, conventionally expressed as a percentage of control) is shown below in Table 2.

B-RAF V600E = target: T2, B-RAF V600E (Homo sapiens, UniProt P15056, V600E); test: Target protein degradation, assay C: T-Rex 293 cells, HA-BRAF_V600E, 384 well format; type: cell-based; details: T-Rex 293 HA-BRAF_V600E cells, 24 hours, Examples 83-269; for DC50: Assay C; for Dmax: T-REx-293, Assay C
T2 construct: expressed in transfected cells; host or cells: T-Rex 293 cells (Invitrogen #R71007)
Experimental: C. T-Rex 293 Cells (384 Well Format)
as §1, with “pcDNA4/TO_HA-BRAF_V600E” for “pcDNA4/TO_HA-BRAF_G466V”, “V600E” for “G466V”
as §2

T2 sequence (P15056 whole entry V600E): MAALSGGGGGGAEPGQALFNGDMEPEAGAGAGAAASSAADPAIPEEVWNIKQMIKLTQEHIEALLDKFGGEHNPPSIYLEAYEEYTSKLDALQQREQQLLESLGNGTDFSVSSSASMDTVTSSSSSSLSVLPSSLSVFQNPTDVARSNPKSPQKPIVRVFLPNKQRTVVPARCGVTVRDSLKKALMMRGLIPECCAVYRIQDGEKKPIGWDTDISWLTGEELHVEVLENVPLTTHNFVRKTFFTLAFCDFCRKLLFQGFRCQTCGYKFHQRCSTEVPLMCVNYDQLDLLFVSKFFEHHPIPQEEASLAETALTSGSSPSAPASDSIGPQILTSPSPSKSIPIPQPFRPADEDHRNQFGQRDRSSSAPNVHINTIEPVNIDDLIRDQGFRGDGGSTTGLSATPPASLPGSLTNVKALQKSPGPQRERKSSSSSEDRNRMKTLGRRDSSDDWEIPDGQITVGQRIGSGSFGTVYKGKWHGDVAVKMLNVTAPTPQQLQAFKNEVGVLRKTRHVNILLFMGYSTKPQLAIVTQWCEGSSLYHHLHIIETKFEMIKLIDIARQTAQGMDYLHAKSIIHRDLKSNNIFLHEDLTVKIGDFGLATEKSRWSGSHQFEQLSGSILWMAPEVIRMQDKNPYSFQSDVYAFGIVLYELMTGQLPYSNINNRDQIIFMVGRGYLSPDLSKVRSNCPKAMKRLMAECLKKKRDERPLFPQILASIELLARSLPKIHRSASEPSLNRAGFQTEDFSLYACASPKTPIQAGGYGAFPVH
T1 sequence (P15056 whole entry G466V): as the sequence (P15056 whole entry V600E) above, with G466V, E600V counted along it

DC50 (B-RAF G466V; Assay D) [nM]	DC50 (B-RAF V600E) [nM]	Dmax (B-RAF G466V) [%]	Dmax (B-RAF V600E) [%]	B-RAF G466V DMax (%) (B-RAF G466V; Assay D)	Compound
1 to 10	50 to 500				Cc1c(N2CCC(CN3CCN(c4ccc(-n5cnc6ccc(Oc7c(F)ccc(NS(=O)(=O)N8CC[C@@H](F)C8)c7C#N)cc6c5=O)cc4)CC3)CC2)ccc2c1CN(C1CCC(=O)NC1=O)C2=O (single isomer, unassigned) [Example 113, (3R)-N-(2-cyano-3-{[3-(4-{4-[(1-{2-[(3R*)-2,6-dioxopiperidin-3-yl]-4-methyl-1-oxo-2,3-dihydro-1H-isoindol-5-yl}piperidin-4-yl)methyl]piperazin-1-yl}phenyl)-4-oxo-3,4-dihydroquinazolin-6-yl]oxy}-4-fluorophenyl)-3-fluoropyrrolidine-1-sulfonamide]
1 to 10	50 to 500	35 to 70	≤ 35		N#Cc1c(NS(=O)(=O)N2CC[C@@H](F)C2)ccc(F)c1Oc1ccc2ncn(-c3ccc(N4CC(CN5CCN(C6CCN(c7ccc8c(c7)CN(C7CCC(=O)NC7=O)C8=O)CC6)CC5)C4)cc3)c(=O)c2c1 (single isomer, unassigned) [Example 197, (3R)-N-[2-cyano-3-({3-[4-(3-{[4-(1-{2-[(3R*)-2,6-dioxopiperidin-3-yl]-1-oxo-2,3-dihydro-1H-isoindol-5-yl}piperidin-4-yl)piperazin-1-yl]methyl}azetidin-1-yl)phenyl]-4-oxo-3,4-dihydroquinazolin-6-yl}oxy)-4-fluorophenyl]-3-fluoropyrrolidine-1-sulfonamide]
1 to 10	50 to 500				N#Cc1c(NS(=O)(=O)N2CC[C@@H](F)C2)ccc(F)c1Oc1ccc2ncn(-c3ccc(N4CC(CN5CCN(C6CCN(c7ccc8c(c7)CN(C7CCC(=O)NC7=O)C8=O)CC6)CC5)C4)cc3)c(=O)c2c1 (single isomer, unassigned) [Example 198, (3R)-N-[2-cyano-3-({3-[4-(3-{[4-(1-{2-[(3R*)-2,6-dioxopiperidin-3-yl]-1-oxo-2,3-dihydro-1H-isoindol-5-yl}piperidin-4-yl)piperazin-1-yl]methyl}azetidin-1-yl)phenyl]-4-oxo-3,4-dihydroquinazolin-6-yl}oxy)-4-fluorophenyl]-3-fluoropyrrolidine-1-sulfonamide]
> 30	> 500	35 to 70			N#Cc1c(NS(=O)(=O)N2CC[C@@H](F)C2)ccc(F)c1Oc1ccc2ncn(-c3ccc(N4CCN(C(=O)C5CCN(c6ccc7c(c6)CN(C6CCC(=O)NC6=O)C7=O)CC5)CC4)cc3)c(=O)c2c1 (single isomer, unassigned) [Example 241, (3R)-N-{2-cyano-3-[(3-{4-[4-(1-{2-[(3R*)-2,6-dioxopiperidin-3-yl]-1-oxo-2,3-dihydro-1H-isoindol-5-yl}piperidine-4-carbonyl)piperazin-1-yl]phenyl}-4-oxo-3,4-dihydroquinazolin-6-yl)oxy]-4-fluorophenyl}-3-fluoropyrrolidine-1-sulfonamide]
10 to 30	> 500			C (C ≤ 35)	N#Cc1c(NS(=O)(=O)N2CC[C@@H](F)C2)ccc(F)c1Oc1ccc2ncn(-c3ccc(N4CCN(C(=O)C5CCN(c6ccc7c(c6)CN(C6CCC(=O)NC6=O)C7=O)CC5)CC4)cc3)c(=O)c2c1 (single isomer, unassigned) [Example 242, (3R)-N-{2-cyano-3-[(3-(4-[4-(1-{2-[(3R*)-2,6-dioxopiperidin-3-yl]-1-oxo-2,3-dihydro-1H-isoindol-5-yl}piperidine-4-carbonyl)piperazin-1-yl]phenyl}-4-oxo-3,4-dihydroquinazolin-6-yl)oxy]-4-fluorophenyl}-3-fluoropyrrolidine-1-sulfonamide]
1 to 10	50 to 500	35 to 70	35 to 70		N#Cc1c(NS(=O)(=O)N2CC[C@@H](F)C2)ccc(F)c1Oc1ccc2ncn(-c3cccc(C4CCN(CC5CCN(c6ccc7c(c6)CN([C@H]6CCC(=O)NC6=O)C7=O)CC5)C4)c3)c(=O)c2c1 (single isomer, unassigned) [Example 257, (3R)-N-{2-cyano-3-[(3-{3-[(3R*)-1-[(1-{2-[(3S)-2,6-dioxopiperidin-3-yl]-1-oxo-2,3-dihydro-1H-isoindol-5-yl}piperidin-4-yl)methyl]pyrrolidin-3-yl]phenyl}-4-oxo-3,4-dihydroquinazolin-6-yl)oxy]-4-fluorophenyl}-3-fluoropyrrolidine-1-sulfonamide]
1 to 10	50 to 500				N#Cc1c(NS(=O)(=O)N2CC[C@@H](F)C2)ccc(F)c1Oc1ccc2ncn(-c3cccc(C4CCN(CC5CCN(c6ccc7c(c6)CN([C@H]6CCC(=O)NC6=O)C7=O)CC5)C4)c3)c(=O)c2c1 (single isomer, unassigned) [Example 259, (3R)-N-{2-cyano-3-[(3-{3-[(3R*)-1-[(1-{2-[(3S)-2,6-dioxopiperidin-3-yl]-1-oxo-2,3-dihydro-1H-isoindol-5-yl}piperidin-4-yl)methyl]pyrrolidin-3-yl]phenyl}-4-oxo-3,4-dihydroquinazolin-6-yl)oxy]-4-fluorophenyl}-3-fluoropyrrolidine-1-sulfonamide]
1 to 10	50 to 500	≥ 70	35 to 70		N#Cc1c(NS(=O)(=O)N2CC[C@@H](F)C2)ccc(F)c1Oc1ccc2ncn(-c3ccc(N4CCC(CN5CC6(CCC(c7ccc8c(c7)CN(C7CCC(=O)NC7=O)C8=O)CC6)C5)C4)cc3)c(=O)c2c1 (single isomer, unassigned) [Example 260, (3R)-N-(2-cyano-3-{[3-(4-{3-[(7-{2-[(3R*)-2,6-dioxopiperidin-3-yl]-1-oxo-2,3-dihydro-1H-isoindol-5-yl}-2-azaspiro[3.5]nonan-2-yl)methyl]pyrrolidin-1-yl}phenyl)-4-oxo-3,4-dihydroquinazolin-6-yl]oxy}-4-fluorophenyl)-3-fluoropyrrolidine-1-sulfonamide]
